The nature of data set [1]: Peptide solubility in PBS/H2O.
Another data set concerns the target EphA2 (Homo sapiens, UniProt P29317). Description: ELISA: inhibition of ephrin-A5 AP binding to immobilized EphA2 Fc. More on the design: the immobilized EphA2 extracellular domain fused to the Fc portion of an antibody (EphA2 Fc). Particulars: average ± SE. The protocol: (FIG. 2A) Representative ELISAs comparing the ability of the peptides to inhibit binding of ephrin-A5 fused to alkaline phosphatase (ephrin-A5 AP) to the immobilized EphA2 extracellular domain fused to the Fc portion of an antibody (EphA2 Fc). The graphs show averages±SE from triplicate measurements from a representative experiment. IC50 values calculated from the fitted curves in each experiment are shown. All concentrations are nM and the 100 nM peptide concentration is outlined in red. (FIG. 2B) Ephrin-A5 AP binding to the indicated EphA receptors and ephrin-B2 AP binding to the indicated EphB receptors in the presence of the indicated peptide, normalized to ephrin binding without peptide. The bars show averages±SE from triplicate measurements.
(ELISA stands for enzyme-linked immunosorbent assay.)

For a further data set, the target named is T1, EphA2 LBD (Homo sapiens, UniProt P29317).
T1 construct: EphA2 LBD (residues 28-200); made in house; host or cells: E. coli Origami 2 (DE3)
T1 sequence (P29317 28-200): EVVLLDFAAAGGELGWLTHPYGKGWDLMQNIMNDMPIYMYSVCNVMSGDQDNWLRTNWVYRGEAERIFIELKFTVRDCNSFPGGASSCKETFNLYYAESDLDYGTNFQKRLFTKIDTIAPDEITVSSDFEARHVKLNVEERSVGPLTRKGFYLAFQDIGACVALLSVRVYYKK
Description: Isothermal titration calorimetry (ITC) of peptide binding. The conditions noted are these: 1 mM biotin. The protocol: For ITC, all peptides were dissolved in DMSO and both the EphA2 LBD and the peptides were diluted to obtain a final buffer containing 9.5 mM HEPES, pH 7.9, 95 mM NaCl, and 5% DMSO. […] Two-microliter aliquots of a peptide solution were injected into the cell containing 205 μL EphA2 LBD. 200-400 μM peptides were titrated into 20-40 μM EphA2 LBD. Experimental data were analyzed using the Origin software package (Microcal). The integrated values for the reaction heats were normalized to the amount of injected peptide after blank subtraction.
On the technique in general: Isothermal titration calorimetry measures the heat released or taken up as one component is titrated into another.

Setting [2] is: PBS, Solubility in PBS (mg/ml), PBS (first figure of cell).
Where [3] appears, read: water, Solubility in H2O (mg/ml), H2O (second figure of cell).

In brackets after ≈: the same amount, converted by molar mass. Non-standard residues stand in square brackets, D forms with d. Residues, ends and D or L forms follow the SMILES beside them. No end group written: not given here. *: point of attachment. Biotin = O=C1N[C@H]2[C@H](CS[C@H]2CCCCC(=O)*)N1; βAla = NCCC(=O)O

The source of these data is patent publication US12398179B2, “Nanomolar peptides and derivatives to differentially modulate ephrin receptors” (Sanford Burnham Prebys Medical Discovery Institute, priority 2019, dated 2025).

Sequence of EphA2 (P29317 24-537 limits assumed, species assumed): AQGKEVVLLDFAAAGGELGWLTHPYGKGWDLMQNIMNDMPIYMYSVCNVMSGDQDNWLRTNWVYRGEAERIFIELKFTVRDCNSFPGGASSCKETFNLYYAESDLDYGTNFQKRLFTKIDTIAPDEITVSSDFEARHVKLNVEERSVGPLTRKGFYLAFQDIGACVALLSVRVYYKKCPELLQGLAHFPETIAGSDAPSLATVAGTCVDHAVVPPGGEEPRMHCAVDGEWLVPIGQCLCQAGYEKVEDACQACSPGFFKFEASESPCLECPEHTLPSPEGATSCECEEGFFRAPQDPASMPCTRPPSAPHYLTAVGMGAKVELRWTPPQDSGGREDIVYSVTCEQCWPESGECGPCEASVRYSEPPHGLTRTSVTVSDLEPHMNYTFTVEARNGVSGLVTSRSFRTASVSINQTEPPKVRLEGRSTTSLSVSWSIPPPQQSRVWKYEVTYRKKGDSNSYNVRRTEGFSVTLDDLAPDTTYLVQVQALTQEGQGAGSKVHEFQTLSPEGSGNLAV

Usually solubility stands for how much of the substance goes into solution per volume. Low readings indicate little dissolved substance, high ones much dissolved substance. As for `CC(C)C[C@H](NC(=O)[C@H](Cc1c[nH]c2ccccc12)NC(=O)[C@H](C)NC(=O)CNC(=O)[C@@H](N)CSCC(N)=O)C(=O)N[C@@H](C)C(=O)N[C@@H](Cc1ccc(O)cc1)C(=O)N1CCC[C@H]1C(=O)N[C@@H](CC(=O)O)C(=O)N[C@@H](CO)C(=O)N[C@H](C(=O)N1CCC[C@H]1C(=O)N[C@@H](Cc1ccc(O)cc1)C(=O)N[C@@H](CCCNC(=N)N)C(=O)N1CCC[C@H]1C(=O)N[C@@H](CCCCNC(=O)CCCC[C@@H]1SC[C@@H]2NC(=O)N[C@@H]21)C(=O)O)C(C)C` [CcamGA-WLA-YRPK-bio], the solubility in data set [1] (setting [2]) was below 100 µg/mL.

As a reminder, the IC50 is the concentration needed to halve the response being measured. The low end stands for inhibition by little substance, the high end for a need for much substance. In turn, `CC(C)C[C@H](NC(=O)[C@H](Cc1c[nH]c2ccccc12)NC(=O)CCN)C(=O)N[C@@H](C)C(=O)N[C@@H](Cc1ccc(O)cc1)C(=O)N1CCC[C@H]1C(=O)N[C@@H](CC(=O)O)C(=O)N[C@@H](CO)C(=O)N[C@H](C(=O)N1CCC[C@H]1C(=O)N[C@@H](Cc1ccc(O)cc1)C(=O)N[C@@H](CO)C(=O)N1CCC[C@H]1C(=O)N[C@@H](CCCCNC(=O)CCCC[C@@H]1SC[C@@H]2NC(=O)N[C@@H]21)C(=O)O)C(C)C` [βA-WLA-YSPK-bio] (H-[βAla]WLAYPDSVPYSPK(Biotin)-OH; N-terminus and C-terminus assumed) showed an IC50 at EphA2 of 62 ± 3 nM.

Regarding `O=C(O)CCCC[C@@H]1SC[C@@H]2NC(=O)N[C@@H]21` [biotin, reference compound], the “binding to the EphA2 LBD by ITC (in words)” value at EphA2 LBD was “did not detect binding”.

On to `CC(C)C[C@H](NC(=O)[C@H](Cc1c[nH]c2ccccc12)NC(=O)[C@H](C)NC(=O)[C@@H](N)CCCCNC(=O)CCCC[C@@H]1SC[C@@H]2NC(=O)N[C@@H]21)C(=O)N[C@@H](C)C(=O)N[C@@H](Cc1ccc(O)cc1)C(=O)N1CCC[C@H]1C(=O)N[C@@H](CC(=O)O)C(=O)N[C@@H](CO)C(=O)N[C@H](C(=O)N1CCC[C@H]1C(=O)N[C@@H](Cc1ccc(O)cc1)C(=O)N[C@@H](CCCNC(=N)N)C(=O)N1CCC[C@H]1C(=O)N[C@@H](CCCCN)C(N)=O)C(C)C` [K-bioA-WLA-YRPKam], for which the solubility in data set [1] (H2O, Solubility in H2O (mg/ml), H2O (second figure of cell)) came out at 10000 µg/mL (≈ 4.96 mM); in data set [1] (setting [2]), 10000 µg/mL (≈ 4.96 mM).

Consider `CC(C)C[C@H](NC(=O)[C@H](Cc1c[nH]c2ccccc12)NC(=O)CCN)C(=O)N[C@@H](C)C(=O)N[C@@H](Cc1ccc(O)cc1)C(=O)N1CCC[C@H]1C(=O)N[C@@H](CC(=O)O)C(=O)N[C@@H](CO)C(=O)N[C@H](C(=O)N1CCC[C@H]1C(=O)N[C@@H](Cc1ccc(O)cc1)C(=O)NCC(=O)N[C@@H](CO)C(=O)NCC(=O)N[C@@H](CCCCNC(=O)CCCC[C@@H]1SC[C@@H]2NC(=O)N[C@@H]21)C(=O)O)C(C)C` [βA-WLA-YGSGK-bio] (H-[βAla]WLAYPDSVPYGSGK(Biotin)-OH; N-terminus and C-terminus assumed), for which the solubility in data set [1] (setting [2]) and in data set [1] (setting [3]) was 5000 µg/mL (≈ 2.72 mM) in each case. The IC50 on EphA2 is 330 ± 40 nM.

As for `CSCC[C@H](NC(=O)[C@H](CCSC)NC(=O)[C@@H]1CCCN1C(=O)[C@@H](NC(=O)[C@H](CO)NC(=O)[C@H](CC(=O)O)NC(=O)[C@@H]1CCCN1C(=O)[C@H](Cc1ccc(O)cc1)NC(=O)[C@H](C)NC(=O)[C@H](CO)NC(=O)[C@@H](N)Cc1ccc(O)cc1)C(C)C)C(=O)N[C@@H](CO)C(=O)NCC(=O)N[C@@H](CO)C(=O)NCC(=O)N[C@@H](CO)C(=O)N[C@@H](CCCCN)C(=O)O` [YSA-GSGSK], the solubility in data set [1] (setting [2]) was found to be 10000 µg/mL (≈ 5.67 mM); in data set [1] (setting [3]), 5000 µg/mL (≈ 2.83 mM). The compound also showed an IC50 on EphA2 of 4500 nM.

As for `CC(C)C[C@H](NC(=O)[C@H](Cc1c[nH]c2ccccc12)NC(=O)CCN)C(=O)N[C@@H](C)C(=O)N[C@@H](Cc1ccc(O)cc1)C(=O)N1CCC[C@H]1C(=O)N[C@@H](CC(=O)O)C(=O)N[C@@H](CO)C(=O)N[C@H](C(=O)N1CCC[C@H]1C(=O)N[C@@H](Cc1ccc(O)cc1)C(=O)N[C@@H](CCCCNC(=O)CCCC[C@@H]1SC[C@@H]2NC(=O)N[C@@H]21)C(=O)O)C(C)C` [βA-WLA-YK-bio] (H-[βAla]WLAYPDSVPYK(Biotin)-OH; N-terminus and C-terminus assumed), on EphA2, the IC50 was found to be 730 ± 90 nM.

In the case of `CSCC[C@H](NC(=O)[C@@H]1CCCN1C(=O)[C@@H](NC(=O)[C@H](CO)NC(=O)[C@H](CC(=O)O)NC(=O)[C@@H]1CCCN1C(=O)[C@H](Cc1ccc(O)cc1)NC(=O)[C@H](C)NC(=O)[C@H](CO)NC(=O)[C@@H](N)Cc1ccc(O)cc1)C(C)C)C(N)=O` [YSA1-10am], the solubility in data set [1] (setting [2]) and in data set [1] (setting [3]) was 10000 µg/mL (≈ 8.86 mM) in each case.

`CC(C)C[C@H](NC(=O)[C@H](Cc1c[nH]c2ccccc12)NC(=O)CCN)C(=O)N[C@@H](C)C(=O)N[C@@H](Cc1ccc(O)cc1)C(=O)N1CCC[C@H]1C(=O)N[C@@H](CC(=O)O)C(=O)N[C@@H](CO)C(=O)N[C@H](C(=O)N1CCC[C@H]1C(=O)N[C@@H](Cc1ccc(O)cc1)C(=O)NCC(=O)N[C@@H](CO)C(=O)N[C@@H](CCCCNC(=O)CCCC[C@@H]1SC[C@@H]2NC(=O)N[C@@H]21)C(=O)O)C(C)C` [βA-WLA-YGSK-bio] (H-[βAla]WLAYPDSVPYGSK(Biotin)-OH; N-terminus and C-terminus assumed) returned an IC50 at EphA2 of 400 ± 70 nM.

Turning to `CSCC[C@H](NC(=O)[C@@H]1CCCN1C(=O)[C@@H](NC(=O)[C@H](CO)NC(=O)[C@H](CC(=O)O)NC(=O)[C@@H]1CCCN1C(=O)[C@H](Cc1ccc(O)cc1)NC(=O)[C@H](C)NC(=O)[C@H](CC(C)C)NC(=O)[C@H](Cc1c[nH]c2ccccc12)NC(=O)CCN)C(C)C)C(N)=O` [βA-WLAam] (HELM PEPTIDE1{[bAla].W.L.A.Y.P.D.S.V.P.M.[am]}$$$$V2.0; N-terminus assumed), the solubility in data set [1] (setting [2]) and in data set [1] (setting [3]) was 10000 µg/mL (≈ 8.01 mM) each time. The compound also registered an IC50 on EphA2 of 840 ± 80 nM.

As for WLAYPDSVPM-NH2 [WLAam], the IC50 at EphA2 is 1500 nM.

`CC(C)C[C@H](NC(=O)[C@H](Cc1c[nH]c2ccccc12)NC(=O)CCN)C(=O)N[C@@H](C)C(=O)N[C@@H](Cc1ccc(O)cc1)C(=O)N1CCC[C@H]1C(=O)N[C@@H](CC(=O)O)C(=O)N[C@@H](CO)C(=O)N[C@H](C(=O)N1CCC[C@H]1C(=O)N[C@@H](Cc1ccc(O)cc1)C(N)=O)C(C)C` [βA-WLA-Yam] (HELM PEPTIDE1{[bAla].W.L.A.Y.P.D.S.V.P.Y.[am]}$$$$V2.0; N-terminus assumed) had a solubility in data set [1] (setting [3]) of 5000 µg/mL (≈ 3.9 mM). Besides, the IC50 at EphA2 turned out to be 410 ± 50 nM.

On to `CC(C)C[C@H](NC(=O)[C@H](Cc1c[nH]c2ccccc12)NC(=O)CCN)C(=O)N[C@@H](C)C(=O)N[C@@H](Cc1ccc(O)cc1)C(=O)N1CCC[C@H]1C(=O)N[C@@H](CC(=O)O)C(=O)N[C@@H](CO)C(=O)N[C@H](C(=O)N1CCC[C@H]1C(=O)N[C@@H](Cc1ccc(O)cc1)C(=O)N[C@@H](CCCNC(=N)N)C(=O)O)C(C)C` [βA-WLA-YR] (HELM PEPTIDE1{[bAla].W.L.A.Y.P.D.S.V.P.Y.R}$$$$V2.0; N-terminus and C-terminus assumed), for which the solubility in data set [1] (setting [2]) and in data set [1] (setting [3]) was 5000 µg/mL (≈ 3.48 mM) throughout. The IC50 on EphA2 is 390 ± 30 nM.

For the compound `CC(C)C[C@H](NC(=O)[C@H](Cc1c[nH]c2ccccc12)NC(=O)CCN)C(=O)N[C@@H](C)C(=O)N[C@@H](Cc1ccc(O)cc1)C(=O)N1CCC[C@H]1C(=O)N[C@@H](CC(=O)O)C(=O)N[C@@H](CO)C(=O)N[C@H](C(=O)N1CCC[C@H]1C(=O)N[C@@H](Cc1ccc(O)cc1)C(=O)N[C@@H](CO)C(=O)N[C@@H](CCCCN)C(=O)O)C(C)C` [βA-WLA-YSK] (HELM PEPTIDE1{[bAla].W.L.A.Y.P.D.S.V.P.Y.S.K}$$$$V2.0; N-terminus and C-terminus assumed), the solubility stood at 5000 µg/mL (≈ 3.34 mM) in data set [1] (setting [2]) and 2000 µg/mL (≈ 1.34 mM) in data set [1] (setting [3]). The compound also gave an IC50 on EphA2 of 380 ± 140 nM.

In data set [1] (setting [2]), `CC(C)C[C@H](NC(=O)[C@H](Cc1c[nH]c2ccccc12)NC(=O)CCN)C(=O)N[C@@H](C)C(=O)N[C@@H](Cc1ccc(O)cc1)C(=O)N1CCC[C@H]1C(=O)N[C@@H](CC(=O)O)C(=O)N[C@@H](CO)C(=O)N[C@H](C(=O)N1CCC[C@H]1C(=O)N[C@@H](Cc1ccc(O)cc1)C(=O)N[C@@H](CO)C(=O)N[C@@H](CCCCNC(=O)CCCC[C@@H]1SC[C@@H]2NC(=O)N[C@@H]21)C(=O)O)C(C)C` [βA-WLA-YSK-bio] (H-[βAla]WLAYPDSVPYSK(Biotin)-OH; N-terminus and C-terminus assumed) displayed a solubility of 2000 µg/mL (≈ 1.16 mM).

On to `CSCC[C@H](NC(=O)[C@H](CCSC)NC(=O)[C@@H]1CCCN1C(=O)[C@@H](NC(=O)[C@H](CO)NC(=O)[C@H](CC(=O)O)NC(=O)[C@@H]1CCCN1C(=O)[C@H](Cc1ccc(O)cc1)NC(=O)[C@H](C)NC(=O)[C@H](CO)NC(=O)[C@@H](N)Cc1ccc(O)cc1)C(C)C)C(=O)N[C@@H](CO)C(=O)N[C@@H](CCCCNC(=O)CCCC[C@@H]1SC[C@@H]2NC(=O)N[C@@H]21)C(=O)O` [YSA-K-bio], for which the solubility in data set [1] (setting [2]) and in data set [1] (setting [3]) was 10000 µg/mL (≈ 5.88 mM) in each case.
